Here are results for 1 compound from ChEMBL document CHEMBL1139211, “E/Z-rubrolide O, an anti-inflammatory halogenated furanone from the New Zealand ascidian Synoicum n. sp” (J Nat Prod, 2007).

Activity calls are given as the source filed them. The rule behind the calls is not given here.

For assay [1], the system named is Neutrophil. The experiment in a line: Inhibition of superoxide production in human neutrophils. In kind it is functional, cell-based.
In another assay the test system is HL-60. The experiment in a line: Antiproliferative activity against HL60 cells by MTT assay. The assay is classed as functional, cell-based. To be noted: Homo sapiens. (In general: Tetrazolium assays rely on reduction of a dye to a coloured formazan, in cell work by metabolically active cells.)
Assay [2] in a line: Viability of human neutrophils by trypan blue assay at 500 uM. The assay is classed as functional, Neutrophil.
The subject of assay [3] is Neutrophil. The experiment in a line: Inhibition of PMA-induced adhesion of neutrophils. In kind it is functional, cell-based. The following applies: Homo sapiens.

`O=C1O/C(=C\c2ccc(O)c(Br)c2)C(c2cc(Br)c(O)c(Br)c2)=C1Cl` [RUBROLIDE O]: the results for the IC50 in the assay with Neutrophil [1] and in the assay with HL-60 were 35 µM and 33 µM, respectively. The Activity in assay [2] is 87%. Besides, in the assay with Neutrophil [3], the outcome was Active.
